Reference: publication PMC5418711, “Safety and efficacy of the choline analogue SAR97276 for malaria treatment: results of two phase 2, open-label, multicenter trials in African patients” (Malaria Journal, 2017)

Assay: Study 1: safety assessment (TEAEs, laboratory tests, ECG)
Type: in vivo, human
Settings: for QTc interval - change from baseline Borderline: Incr. from B 30-60 ms / QTc interval - change from baseline Prolonged: Incr. from B > 60 ms / QTc interval Prolonged: > 450 ms (m); > 470 ms (f) / QTc interval ≥ 500 ms: TEAE period
Experimental: Follow-up visits were done on day 6, 8, 14 ± 2, 21 ± 2, 28 ± 2 (Study 1); and day 7, 14 ± 2, 21 ± 2, 28 ± 2 (Study 2). […] Parasitemia was determined microscopically by Giemsa stained thick blood smear by two trained microscopists blinded to each other. […] For Study 2 respiratory parameters (respiratory rate, peak flow, efficiency of cough) were also checked at baseline and 30 min after first dose on day 1, 2 and 3.
Treatment emergent adverse events (TEAEs) were defined as AEs that developed or worsened during the treatment period until day 6 following the end of study treatment.

[1] = Group 1A, one patient, three days after study medication
[2] = Group 1A: 1 day IM 0.18 mg/kg, adults, N=34
[3] = Group 1A: 1 day IM 0.18 mg/kg, adults
[4] = Group 1B: 3 days IM 0.18 mg/kg, adults, N=30
[5] = Group 1B: 3 days IM 0.18 mg/kg, adults
[6] = Group 1C: 1 day IV 0.14 mg/kg, adults, N=30
[7] = Group 1C: 1 day IV 0.14 mg/kg, adults
[8] = Group 1D: 3 days IM 0.18 mg/kg, children, N=19
[9] = Group 1D: 3 days IM 0.18 mg/kg, children

With `Cc1c(CCO)sc[n+]1CCCCCCCCCCCC[n+]1csc(CCO)c1C` [SAR97276A] as the molecule, how does the “ALT increase in the patient with cytolytic hepatitis” value [1] read?
Its value is 4.5 × upper limit than normal (ULN).

What about the “AST increase in the patient with cytolytic hepatitis” value [1] of the same molecule?
Its value is 11 × ULN.

What about the “Total bilirubin in the patient with cytolytic hepatitis” value [1] of the same molecule?
The value was ≥ 1.5 × ULN.

And the “Patients who did not complete study treatment” value [2]?
The value was 0.

And the “Patients with any TEAE” value [2]?
The value was 18 (52.9%).

What about the “TEAE: Arthralgia” value [2] of the same molecule?
Its value is 1 (2.9%).

What about the “TEAE: Convulsion” value [2] of the same molecule?
The value was 0.

And the “TEAE: Cough” value [2]?
Its value is 2 (5.9%).

What about the “TEAE: Cytolytic hepatitis” value [2] of the same molecule?
Its value is 1 (2.9%).

What about the “TEAE: Dizziness” value [2] of the same molecule?
Its value is 1 (2.9%).

What about the “TEAE: Eyelid pruritus” value [2] of the same molecule?
The value was 0.

What about the “TEAE: Gastrointestinal disorders” value [2] of the same molecule?
Its value is 3 (8.8%).

And the “TEAE: General Disorders/Administration site disorders” value [2]?
The value was 3 (8.8%).

And the “TEAE: Headache” value [2]?
The value was 4 (11.8%).

What about the “TEAE: Hypertension” value [2] of the same molecule?
Its value is 0.

What about the “TEAE: Malaria” value [2] of the same molecule?
The value was 2 (5.9%).

And the “TEAE: Neck pain” value [2]?
Its value is 2 (5.9%).

And the “TEAE: Paraesthesia” value [2]?
Its value is 0.

What about the “TEAE: Pneumonia” value [2] of the same molecule?
The value was 1 (2.9%).

And the “TEAE: Pruritus” value [2]?
Its value is 0.

What about the “TEAE: Rhinitis” value [2] of the same molecule?
Its value is 2 (5.9%).

And the “TEAE: Thrombocytopenia” value [2]?
Its value is 0.

What about the “TEAE: Urticaria” value [2] of the same molecule?
The value was 1 (2.9%).

And the “TEAE: Vertigo” value [2]?
The value was 2 (5.9%).

And the “QTc interval - change from baseline Borderline: Incr. from B 30-60 ms” value (from here on “QTc interval - change … from B 30-60 ms”) [3]?
The value was 0/33.

And the “QTc interval - change from baseline Prolonged: Incr. from B > 60 ms” value (“QTc interval - change … from B > 60 ms” below) [3]?
The value was 0/33.

And the “QTc interval Prolonged: > 450 ms (m); > 470 ms (f)” value (from here on “QTc interval Prolonged: > 450 ms”) [3]?
Its value is 0/33.

What about the “QTc interval ≥ 500 ms” value [3] of the same molecule?
The value was 0/33.

And the “Further patients with an elevated AST (> 3 x ULN), apart from the SAE patient” value (Group 1A: adults, single IM dose)?
The value was “one”.

What about the “Patients who did not complete study treatment” value [4] of the same molecule?
Its value is 0.

And the “Patients with any TEAE” value [4]?
The value was 18 (60%).

And the “Patients with any serious AE” value [4]?
Its value is 0.

And the “TEAE: Bradycardia” value [4]?
Its value is 0.

And the “TEAE: Convulsion” value [4]?
The value was 0.

And the “TEAE: Cough” value [4]?
The value was 2 (6.7%).

What about the “TEAE: Cytolytic hepatitis” value [4] of the same molecule?
Its value is 0.

And the “TEAE: Dizziness” value [4]?
Its value is 1 (3.3%).

And the “TEAE: Eyelid pruritus” value [4]?
Its value is 0.

And the “TEAE: Gastrointestinal disorders” value [4]?
The value was 7 (23.3%).

What about the “TEAE: General Disorders/Administration site disorders” value [4] of the same molecule?
Its value is 1 (3.3%).

And the “TEAE: Headache” value [4]?
The value was 4 (13.3%).

What about the “TEAE: Hypertension” value [4] of the same molecule?
The value was 1 (3.3%).

And the “TEAE: Malaria” value [4]?
Its value is 0.

What about the “TEAE: Neck pain” value [4] of the same molecule?
The value was 1 (3.3%).

What about the “TEAE: Paraesthesia” value [4] of the same molecule?
The value was 1 (3.3%).

What about the “TEAE: Pneumonia” value [4] of the same molecule?
Its value is 0.

What about the “TEAE: Pruritus” value [4] of the same molecule?
The value was 1 (3.3%).

What about the “TEAE: Rhinitis” value [4] of the same molecule?
Its value is 0.

What about the “TEAE: Tachycardia” value [4] of the same molecule?
Its value is 1 (3.3%).

What about the “TEAE: Thrombocytopenia” value [4] of the same molecule?
The value was 0.

What about the “TEAE: Urticaria” value [4] of the same molecule?
Its value is 0.

And the “TEAE: Vertigo” value [4]?
The value was 2 (6.7%).

And the “QTc interval - change … from B 30-60 ms” value [5]?
Its value is 0/30.

What about the “QTc interval - change … from B > 60 ms” value [5] of the same molecule?
Its value is 0/30.

What about the “QTc interval Prolonged: > 450 ms” value [5] of the same molecule?
Its value is 0/30.

What about the “QTc interval ≥ 500 ms” value [5] of the same molecule?
Its value is 0/30.

What about the “Patients who did not complete study treatment” value [6] of the same molecule?
The value was 0.

What about the “Patients with any TEAE” value [6] of the same molecule?
The value was 14 (46.7%).

What about the “Patients with any serious AE” value [6] of the same molecule?
The value was 0.

What about the “TEAE: Arthralgia” value [6] of the same molecule?
Its value is 1 (3.3%).

And the “TEAE: Bradycardia” value [6]?
The value was 0.

And the “TEAE: Convulsion” value [6]?
The value was 0.

And the “TEAE: Cough” value [6]?
The value was 1 (3.3%).

And the “TEAE: Cytolytic hepatitis” value [6]?
The value was 0.

And the “TEAE: Dizziness” value [6]?
The value was 2 (6.7%).

And the “TEAE: Eyelid pruritus” value [6]?
The value was 0.

What about the “TEAE: Gastrointestinal disorders” value [6] of the same molecule?
Its value is 1 (3.3%).

What about the “TEAE: General Disorders/Administration site disorders” value [6] of the same molecule?
Its value is 0.

And the “TEAE: Headache” value [6]?
The value was 3 (10%).

What about the “TEAE: Hypertension” value [6] of the same molecule?
The value was 0.

What about the “TEAE: Malaria” value [6] of the same molecule?
The value was 0.

And the “TEAE: Neck pain” value [6]?
Its value is 0.

And the “TEAE: Paraesthesia” value [6]?
Its value is 0.

And the “TEAE: Pneumonia” value [6]?
The value was 0.

And the “TEAE: Pruritus” value [6]?
The value was 0.

What about the “TEAE: Rhinitis” value [6] of the same molecule?
The value was 0.

And the “TEAE: Tachycardia” value [6]?
The value was 0.

And the “TEAE: Thrombocytopenia” value [6]?
Its value is 0.

And the “TEAE: Urticaria” value [6]?
Its value is 0.

And the “TEAE: Vertigo” value [6]?
The value was 0.

What about the “QTc interval - change … from B > 60 ms” value [7] of the same molecule?
Its value is 0/30.

And the “QTc interval Prolonged: > 450 ms” value [7]?
Its value is 0/30.

And the “QTc interval ≥ 500 ms” value [7]?
The value was 0/30.

What about the “Patients with any TEAE” value [8] of the same molecule?
The value was 11 (57.9%).

What about the “TEAE: Arthralgia” value [8] of the same molecule?
Its value is 0.

And the “TEAE: Bradycardia” value [8]?
The value was 0.

And the “TEAE: Convulsion” value [8]?
Its value is 1 (5.3%).

What about the “TEAE: Cough” value [8] of the same molecule?
The value was 1 (5.3%).

And the “TEAE: Cytolytic hepatitis” value [8]?
Its value is 0.

What about the “TEAE: Dizziness” value [8] of the same molecule?
The value was 0.

What about the “TEAE: Eyelid pruritus” value [8] of the same molecule?
The value was 1 (5.3%).

What about the “TEAE: Gastrointestinal disorders” value [8] of the same molecule?
Its value is 5 (26.3%).

What about the “TEAE: General Disorders/Administration site disorders” value [8] of the same molecule?
Its value is 1 (5.3%).

And the “TEAE: Headache” value [8]?
The value was 3 (15.8%).

What about the “TEAE: Hypertension” value [8] of the same molecule?
The value was 0.

And the “TEAE: Malaria” value [8]?
The value was 0.

And the “TEAE: Neck pain” value [8]?
Its value is 0.

What about the “TEAE: Paraesthesia” value [8] of the same molecule?
Its value is 0.

And the “TEAE: Pneumonia” value [8]?
The value was 0.

What about the “TEAE: Pruritus” value [8] of the same molecule?
Its value is 0.

And the “TEAE: Rhinitis” value [8]?
The value was 0.

And the “TEAE: Tachycardia” value [8]?
The value was 0.

What about the “TEAE: Urticaria” value [8] of the same molecule?
Its value is 0.

And the “TEAE: Vertigo” value [8]?
The value was 0.

What about the “QTc interval - change … from B 30-60 ms” value [9] of the same molecule?
The value was 0/18.

What about the “QTc interval - change … from B > 60 ms” value [9] of the same molecule?
The value was 0/18.

And the “QTc interval Prolonged: > 450 ms” value [9]?
Its value is 0/18.

What about the “QTc interval ≥ 500 ms” value [9] of the same molecule?
Its value is 0/18.

What about the Deaths (Study 1) of the same molecule?
The Deaths was “No deaths”.

And the “ECG abnormalities, clinical significance” value (Study 1)?
Its value is “No clinical significant abnormalities”.

What about the “Ophthalmologic disorders possibly related to SAR97276A” value (Study 1) of the same molecule?
Its value is “No ophthalmologic disorders”.

And the “Participants with alkaline phosphatase elevated (> 1.5 x ULN)” value (Study 1)?
The value was 19.

And the “SAEs regarded as related to SAR97276A by the investigators” value (Study 1)?
Its value is “None”.

What about the Tolerability (Study 1) of the same molecule?
The Tolerability was “well tolerated”.

What about the “Patients with a serious adverse event (SAE), total” value (Study 1, all groups) of the same molecule?
Its value is “four”.

What about the “Patients who experienced a TEAE, all cohorts” value (Study 1, out of 113 patients) of the same molecule?
The value was 61 (54%).
